Test results from paper PMC3935609 (Biochemistry, 2013).

Assays:
[1] = biological target: T1, GLIC (Gloeobacter violaceus ligand-gated ion channel) (Gloeobacter violaceus, UniProt Q7NDN8); test: [3H]AziPm photoaffinity labeling of purified GLIC at pH […] with Edman sequencing; format: cell-based
T1 sequence (Q7NDN8 44-359): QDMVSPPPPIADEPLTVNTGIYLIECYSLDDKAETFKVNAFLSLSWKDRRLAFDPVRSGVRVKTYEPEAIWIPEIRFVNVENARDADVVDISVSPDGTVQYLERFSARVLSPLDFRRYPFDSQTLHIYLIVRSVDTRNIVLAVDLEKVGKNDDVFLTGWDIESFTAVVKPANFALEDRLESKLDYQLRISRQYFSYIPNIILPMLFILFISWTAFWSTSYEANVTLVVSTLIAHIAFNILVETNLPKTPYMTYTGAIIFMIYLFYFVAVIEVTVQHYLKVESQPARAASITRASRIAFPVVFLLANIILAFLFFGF

[2] = biological target: T1, GLIC (Gloeobacter violaceus ligand-gated ion channel); test: competition; format: cell-based

CC(C)c1ccc(C2(C(F)(F)F)N=N2)cc1O [AziPm, 2-isopropyl-5-[3-(trifluoromethyl)-3H-diazirin-3-yl]phenol]
IC50 [1]: 51.4 ± 5.3 µM

CC(C)c1cccc(C(C)C)c1O [PPF, Propofol]
IC50 [2]: 21.4 ± 1.2 µM
